Reference: patent US20230082968A1, “EXOGENOUS NITRIC OXIDE FOR IMPROVED SUSCEPTIBILITY AND LOWERED ANTIBIOTIC RESISTANCE IN RESISTANT RESPIRATORY BACTERIA” (The University of North Carolina at Chapel Hill, priority 2020, published 2023)

Assays:
AR 229 = assay: Nitric oxide pretreatment with planktonic bacteria; type: cell-based, P. aeruginosa; details: AR 229, antibiotic 0.625 µg/mL, NO-pretreatment 25% MIC 4 h
Procedure: (§1) After exposure, wells were serially diluted in sterile MilliQ water and spiral plated on TSA. Viability was assessed by colony counting.

[1] = system: P. aeruginosa strain K (PAK); assay: Checkerboard assay of antibiotic combinations with COS/NO; type: cell-based, Pseudomonas aeruginosa; details: antibiotic in combination with COS/NO, 24 h
Procedure: Frozen stocks of bacteria were reconstituted in TSB (3 mL) and cultured overnight. The overnight cultures of bacteria (3 mL) were inoculated into fresh TSB (30 mL) and grown to 10^8 CFU/mL. […] Inhibition was assessed with the resazurin assay and the minimum inhibitory concentration (MIC) was defined as the lowest concentration of antibacterial agent required to prevent the reduction of resazurin (i.e., color change from blue to pink).
Mol. Pharm. 7, 2289-2296 (2010)]. Briefly, bacteria at a final concentration of 10^6 CFU/mL were incubated with an array of antimicrobial combinations in TSB for 24 h at 37° C. The highest concentration for each antimicrobial tested was 2 × MIC. […] The fractional […] concentration index (ΣFIC) was calculated using Equation 1, reported by Elion et al. [Elion, G. B., Singer, S. & Hitchings, G. H. Antagonists of Nucleic Acid Derivatives: VIII. Synergism in combinations of biochemically related antimetabolites. […] Checkerboard assays were conducted in at least duplicate for each bacterial strain and for each drug combination.
Characterization of the combinations was performed using the following criteria based on ΣFIC values: < 0.25 is highly synergistic; ≤ 0.5 is synergistic; ≤ 1 is additive; ≤ 4 is indifferent; > 4 is antagonistic.

AR 542 = assay: Nitric oxide pretreatment with planktonic bacteria; type: cell-based, Klebsiella pneumoniae
Procedure: as §1

[2] = AR 542, antibiotic 500 µg/mL, NO-pretreatment 25% MIC 4 h

NC[C@H]1O[C@H](O[C@H]2[C@H](O)[C@@H](O[C@H]3O[C@H](CO)[C@@H](O)[C@H](N)[C@H]3O)[C@H](N)C[C@@H]2N)[C@H](N)C[C@@H]1O [Tobramycin]
Classification (AR 229): Synergistic | Log Difference in bacteria viability with vs without NO-pretreatment (AR 229): 4.08 log | Classification (ΣFIC) [1]: Additive | ΣFIC (median fractional inhibitory concentration index) [1]: 0.625 | Classification (AR 542; [2]): Synergistic | Log Difference in bacteria viability with vs without NO-pretreatment (AR 542; [2]): 2.29 log | tobramycin-susceptibility with the addition of NO (AR 542; K. pneumoniae AR 542, NO-pretreatment): significant improvement
